The target of the assay is T1, human F508del CFTR (Homo sapiens, UniProt P13569, DEL508-508).
T1 construct: expressed in transfected cells; host or cells: Fisher Rat Thyroid (FRT) cells
Kind of assay: CFTR-YFP High Throughput Assay. It is filed as cell-based. Particulars: FRT cells expressing human F508del CFTR and YFP; for Emax: EMax normalized to the positive control, read-out: % Efficacy. As to the method:
Assays for Detecting and Measuring the Effect of Compounds on F508del-CFTR Channels CFTR-YFP High Throughput Assay-CFTR Corrector Protocol:
This protocol is designed to selectively screen small molecule compounds for F508del CFTR corrector activities in the HTS YFP (yellow fluorescent protein) flux assay. In this protocol, the cells are incubated with testing compounds for 24 hours, washed with PBS, stimulated with forskolin and a standard potentiator, and fluorescence in each plate well is measured kinetically read on a 384-well HTS plate reader, such as the Hamamatsu FDSS-6000.
YFP fluorescence intensity values are acquired at high speed before and after iodide buffer is injected to the assay cells. Iodide enters the cells via active CFTR channels in the plasma membrane, and quenches the YFP fluorescence. The rate of fluorescence quenching is proportionate to the total CFTR activity in the cell membrane. F508del CFTR correctors increase the number of CFTR molecules in the testing cell plasma membrane, and thereby accelerate YFP quenching.
This method was initially developed for bench top plate readers (Galietta et al., 2001), and was adapted to the HTS format (Sui et al. Assay Drug Dev. Technol. 2010).
Fisher Rat Thyroid (FRT) cells stably expressing both human F508del CFTR and a halide-sensitive yellow fluorescent protein (YFP-H148Q/I152L 25,22) (Galietta et al. Am. J. Physiol Cell Physiol 281(5), C1734, 2001) were cultured on plastic surface in Coon's modified Ham's F12 medium supplemented with FBS 10%, L-glutamine 2 mM, penicillin 100 U/ml, and streptomycin 100 µg/ml. G418 (0.75-1.0 mg/ml) and zeocin (3.2 ug/ml) were used for selection of FRT cells expressing F508del CFTR and YFP. For primary screening, FRT cells were plated into 384-well black wall, transparent bottom microtiter plates (Costar; Corning Inc.) at a cell density of 20,000-40,000 per well. Test compound was applied to the cells at varying concentrations ranging from 2 nM-40 μM in either a 2-fold or 3-fold dilution series. Cells were incubated in a cell culture incubator at 37° C. with 5% CO2 for 24-26 h. Assay plates were washed with DPBS media (Thermo, cat# SH30028.02) to remove unbound cells and compound. Stimulation media (25 μL) containing 20 μM Forskolin & 30 μM P3 [6-(Ethyl-phenyl-sulfonyl)-4-oxo-1,4-dihydro-quinoline-3-carboxylic acid 2-methoxy-benzylamide] in Hams F-12 coon's modified media was added to the plate wells and incubated at room temperature for 60-120 min. […] (10 mM HEPES, 1 mM MgCl2, 3 mM KCl, 1 mM CaCl2, 150 mM NaI) was then added and fluorescence quench curves (Excitation 500 nm/Emission 540 nm; exposure 136 ms) were immediately recorded on an FDSS-6000 plate reader (Hamamatsu). Quench rates were derived from least squares fitting of the data as described by Sui et al (2010).
CFTR-YFP High Throughput Assay-CFTR Potentiator Protocol:
This protocol is designed to selectively screen small molecule compounds for F508del CFTR potentiator activities in the HTS YFP flux assay. Such compounds act acutely to stimulate CFTR already expressed on the membrane surface. In this protocol, the cells are incubated at 27° C. for 24 hours to homogeneously boost F508del CFTR expression in the cell membrane (low temperature correction), washed with PBS, treated with test compound, and CFTR activity is stimulated with forskolin for 1-2 hr. Measurement of ion flux is initiated by addition of iodide-containing buffer, and YFP quenching is kinetically recorded using a 384-well HTS plate reader, such as the Hamamatsu FDSS-6000.
YFP fluorescence intensity values are acquired at high speed over a 1 min time course before and after iodide buffer is injected to the assay cells. Iodide enters the cells via active CFTR channels in the plasma membrane, and quenches the YFP fluorescence. The rate of fluorescence quenching is proportionate to total CFTR activity in the cell membrane. […]

Structures are written as SMILES. pEC50: −log10 of the molar value.

T1 sequence (P13569 with tags, fused parts or gaps DEL508-508): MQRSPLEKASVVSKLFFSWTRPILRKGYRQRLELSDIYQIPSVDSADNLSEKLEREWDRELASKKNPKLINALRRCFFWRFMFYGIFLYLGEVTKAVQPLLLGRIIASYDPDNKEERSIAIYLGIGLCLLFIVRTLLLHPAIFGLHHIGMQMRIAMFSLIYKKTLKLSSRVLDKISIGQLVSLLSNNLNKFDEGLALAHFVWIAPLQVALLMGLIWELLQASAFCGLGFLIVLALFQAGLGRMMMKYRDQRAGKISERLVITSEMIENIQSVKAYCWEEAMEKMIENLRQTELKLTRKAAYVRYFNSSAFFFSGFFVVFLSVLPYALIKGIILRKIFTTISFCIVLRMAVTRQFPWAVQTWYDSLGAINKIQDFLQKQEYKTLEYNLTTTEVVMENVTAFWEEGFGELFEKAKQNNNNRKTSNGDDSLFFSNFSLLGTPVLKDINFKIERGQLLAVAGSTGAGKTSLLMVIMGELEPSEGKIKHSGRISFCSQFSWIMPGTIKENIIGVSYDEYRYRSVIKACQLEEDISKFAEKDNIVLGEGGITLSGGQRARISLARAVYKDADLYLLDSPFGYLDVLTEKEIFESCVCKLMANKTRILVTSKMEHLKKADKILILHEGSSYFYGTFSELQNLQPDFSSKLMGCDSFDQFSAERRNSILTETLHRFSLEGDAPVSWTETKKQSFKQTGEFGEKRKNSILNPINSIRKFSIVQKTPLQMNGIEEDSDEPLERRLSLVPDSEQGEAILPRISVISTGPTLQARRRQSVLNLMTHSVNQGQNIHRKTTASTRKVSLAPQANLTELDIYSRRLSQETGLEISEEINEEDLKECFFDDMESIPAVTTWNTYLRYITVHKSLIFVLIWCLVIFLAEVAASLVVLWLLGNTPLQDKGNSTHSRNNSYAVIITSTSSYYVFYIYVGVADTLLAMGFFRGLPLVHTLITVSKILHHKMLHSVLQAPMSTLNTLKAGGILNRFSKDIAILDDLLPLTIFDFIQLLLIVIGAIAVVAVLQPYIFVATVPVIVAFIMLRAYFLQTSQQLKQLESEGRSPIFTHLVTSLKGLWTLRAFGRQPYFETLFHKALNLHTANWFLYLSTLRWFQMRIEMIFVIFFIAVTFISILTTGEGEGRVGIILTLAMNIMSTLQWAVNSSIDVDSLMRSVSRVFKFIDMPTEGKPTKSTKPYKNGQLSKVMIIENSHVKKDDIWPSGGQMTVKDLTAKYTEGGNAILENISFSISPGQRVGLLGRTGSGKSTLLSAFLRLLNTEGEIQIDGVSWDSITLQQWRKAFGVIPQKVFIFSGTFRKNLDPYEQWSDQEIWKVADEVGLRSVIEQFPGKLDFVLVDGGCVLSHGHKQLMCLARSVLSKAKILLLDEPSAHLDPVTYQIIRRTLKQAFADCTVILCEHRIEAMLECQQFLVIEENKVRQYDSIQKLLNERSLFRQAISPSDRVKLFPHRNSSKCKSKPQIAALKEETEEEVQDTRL

One may read the pEC50 as −log10 of the EC50, conventionally taken in molar units. On to `CCN(C(=O)c1nn(CC(C)(C)C)c(=O)c2c1c1ccccc1n2C)c1ccccc1` [Example 217, N-ethyl-5-methyl-3-neopentyl-4-oxo-N-phenyl-4,5-dihydro-3H-pyridazino[4,5-b]indole-1-carboxamide], for which the Emax lay within 10 to 30% and the pEC50 was less than 4.70.

For the molecule `CCN(C(=O)c1nn(CC(=O)N2CCOCC2)c(=O)c2c1c1ccccc1n2C)c1ccccc1` [Example 215, N-ethyl-5-methyl-3-(2-morpholino-2-oxoethyl)-4-oxo-N-phenyl-4,5-dihydro-3H-pyridazino[4,5-b]indole-1-carboxamide], the Emax lay within 30 to 80% and the pEC50 was more than 5.00. `CCN(C(=O)Cn1nc(-c2ccc(S(N)(=O)=O)cc2)c2ccc(OC)cc2c1=O)c1ccc2c(c1)OC(F)(F)O2` [Example 72, N-(2,2-difluorobenzo[d][1,3]dioxol-5-yl)-N-ethyl-2-(7-methoxy-1-oxo-4-(4-sulfamoylphenyl)phthalazin-2(1H)-yl)-acetamide]: the Emax was more than 80%. On to `CCc1ccc(N(CC)C(=O)Cn2nc(Cc3cccnc3)c3ccncc3c2=O)cc1` [Example 41, N-ethyl-N-(4-ethylphenyl)-2-(4-oxo-1-(pyridin-3-ylmethyl)pyrido[3,4-d]pyridazin-3(4H)-yl)acetamide], for which the Emax lay within 30 to 80% and the pEC50 is more than 5.00. Regarding `Cc1ccc(-n2nc(C(=O)N3CCCCC3)c3c4ccccc4n(C)c3c2=O)cc1` [Example 150, 5-methyl-1-(piperidine-1-carbonyl)-3-p-tolyl-3H-pyridazino [4,5-b]indol-4(5H)-one], the Emax fell in the range of 30 to 80%. For the molecule `CCN(CC)C(=O)c1nn(CC(O)COCc2ccccc2)c(=O)c2c1c1c(OC)cccc1n2C` (centres unmarked) [Example 231, 3-(3-(benzyloxy)-2-hydroxypropyl)-N,N-diethyl-9-methoxy-5-methyl-4-oxo-4,5-dihydro-3H-pyridazino[4,5-b]indole-1-carboxamide], the Emax was in the range of 30 to 80% and the pEC50 was more than 5.00. Regarding `CCN(C(=O)Cn1nc(Cc2cccnc2)c2cc(C)ccc2c1=O)c1ccc2c(c1)OC(F)(F)O2` [Example 46, N-(2,2-difluorobenzo[d][1,3]dioxol-5-yl)-N-ethyl-2-(6-methyl-1-oxo-4-(pyridin-3-ylmethyl)phthalazin-2(1H)-yl)acetamide], the Emax lay in the range of 30 to 80%. As for `Cc1nc2ccc(N(C)C(=O)Cn3nc(-c4cccc(Cl)c4)c4ccc(OCc5ccccc5)cc4c3=O)cc2o1` [Example 116, 2-(7-(benzyloxy)-4-(3-chlorophenyl)-1-oxophthalazin-2(1H)-yl)-N-methyl-N-(2-methylbenzo[d]oxazol-6-yl)acetamide], the Emax was more than 80% and the pEC50 was more than 5.00. With `CCOc1cc2c(=O)n(CC(=O)N(C)c3ccc4nc(C)oc4c3)nc(-c3cccc(F)c3)c2cc1Cl` [Example 121, 2-(6-chloro-7-ethoxy-4-(3-fluorophenyl)-1-oxophthalazin-2(1H)-yl)-N-methyl-N-(2-methylbenzo[d]oxazol-6-yl)acetamide], the Emax was more than 80%.

Turning to `CCN(C(=O)c1nn(-c2ccc(C)cc2)c(=O)c2c1c1ccccc1n2C(C)C)c1ccccc1` [Example 225, N-ethyl-5-isopropyl-4-oxo-N-phenyl-3-(p-tolyl)-4,5-dihydro-3H-pyridazino[4,5-b]indole-1-carboxamide], the Emax lay in the range of 30 to 80%. As to `CCN(C(=O)Cn1ncc2c(c1=O)c1ccccc1n2Cc1ccc(C#N)c(F)c1)c1ccc2c(c1)OC(F)(F)O2` [Example 145, 2-(5-(4-cyano-3-fluorobenzyl)-1-oxo-1H-pyridazino[4,5-b]indol-2(5H)-yl)-N-(2,2-difluorobenzo[d][1,3]dioxol-5-yl)-N-ethylacetamide], the Emax was 30 to 80% and the pEC50 was more than 5.00. For `Cc1ccc(-n2nc(C(=O)N(CC(=O)O)c3ccccc3)c3c4ccccc4n(C)c3c2=O)cc1` [Example 163, 2-(5-methyl-4-oxo-N-phenyl-3-(p-tolyl)-4,5-dihydro-3H-pyridazino[4,5-b]indole-1-carboxamido)acetic acid], the Emax fell in the range of 30 to 80%.

For the molecule `CCN(C(=O)Cn1nc(-c2ccc(S(N)(=O)=O)cc2)c2ccc(OC)cc2c1=O)c1ccc(OC(F)F)cc1` [Example 73, N-(4-(difluoromethoxy)phenyl)-N-ethyl-2-(7-methoxy-1-oxo-4-(4-sulfamoylphenyl)phthalazin-2(1H)-yl)acetamide], the Emax was in the range of 30 to 80% and the pEC50 is more than 5.00.

With `Cc1ccc(-n2nc(Cn3ccnc3)c3c4ccccc4n(C)c3c2=O)cc1` [Example 242, 1-((1H-imidazol-1-yl)methyl)-5-methyl-3-(p-tolyl)-3,5-dihydro-4H-pyridazino[4,5-b]indol-4-one], the Emax was in the range of 30 to 80% and the pEC50 was less than 4.70. As for `CCOC(=O)c1ccc2c(-c3cccc(Cl)c3)nn(CC(=O)N(C)c3ccc4nc(C)oc4c3)c(=O)c2c1` [Example 65, ethyl 1-(3-chlorophenyl)-3-(2-(methyl(2-methylbenzo[d]oxazol-6-yl)amino)-2-oxoethyl)-4-oxo-3,4-dihydrophthalazine-6-carboxylate], the Emax was more than 80% and the negative logarithm of the EC50 (pEC50) is more than 5.00. Regarding `CCN(C(=O)c1nn(-c2ccccc2)c(=O)c2c1c1ccccc1n2C)c1ncccn1` [Example 162, N-ethyl-5-methyl-4-oxo-3-phenyl-N-(pyrimidin-2-yl)-4,5-dihydro-3H-pyridazino[4,5-b]indole-1-carboxamide], the Emax is 30 to 80%. As for `CCc1ccc(N(CC)C(=O)Cn2nc(Cc3cccnc3)c3cc(C)ccc3c2=O)cc1` [Example 29, N-ethyl-N-(4-ethylphenyl)-2-(6-methyl-1-oxo-4-(pyridin-3-ylmethyl)phthalazin-2(1H)-yl)acetamide], the Emax was 30 to 80%. On to `CCc1ccc(N(CC)C(=O)Cn2nc(Cc3cccnc3)c3cc(Cl)ccc3c2=O)cc1` [Example 40, 2-(6-chloro-1-oxo-4-(pyridin-3-ylmethyl)phthalazin-2(1H)-yl)-N-ethyl-N-(4-ethylphenyl)acetamide], for which the Emax was 30 to 80%. Same read-out and setting: under `CCN(C(=O)Cn1nc(Cc2cccnc2)c2c(OC3CCCCC3)cccc2c1=O)c1ccc2c(c1)OC(F)(F)O2` [Example 60, 2-(5-(cyclohexyloxy)-1-oxo-4-(pyridin-3-ylmethyl)phthalazin-2(1H)-yl)-N-(2,2-difluorobenzo[d][1,3]dioxol-5-yl)-N-ethylacetamide] stands 30 to 80%; under `CCN(C(=O)Cn1nc(Cc2cccnc2)c2c(C)cccc2c1=O)c1ccc2c(c1)OC(F)(F)O2` [Example 48, N-(2,2-difluorobenzo[d][1,3]dioxol-5-yl)-N-ethyl-2-(5-methyl-1-oxo-4-(pyridin-3-ylmethyl)phthalazin-2(1H)-yl)acetamide], 30 to 80%.

Turning to `CCOc1ccc(N(CC)C(=O)c2nn(C(C)C)c(=O)c3c2c2ccccc2n3C)cc1` [Example 210, N-(4-ethoxyphenyl)-N-ethyl-3-isopropyl-5-methyl-4-oxo-4,5-dihydro-3H-pyridazino[4,5-b]indole-1-carboxamide], the Emax fell in the range of 30 to 80% and the pEC50 is more than 5.00.

For the molecule `CCN(C(=O)c1nn(-c2nc3ccccc3s2)c(=O)c2c1c1ccccc1n2C)c1ccccc1` [Example 172, 3-(benzo[d]thiazol-2-yl)-N-ethyl-5-methyl-4-oxo-N-phenyl-4,5-dihydro-3H-pyridazino[4,5-b]indole-1-carboxamide], the Emax was in the range of 10 to 30%.
